In US20140155635A1, “RESORCYLIC ACID LACTONE COMPOUNDS” (KOREA INSTITUTE OF SCIENCE AND TECHNOLOGY, priority 2012, published 2014):

What was measured:
[1] = tested on: serine/threonine kinase MAPK (mitogen-activated protein kinase); conditions: cited from earlier work
MEK 1/2 = conditions: cited from earlier work
VEGFR 2 = VEGFR 2 (Homo sapiens, UniProt P35968); conditions: cited from earlier work
FLT 3/4 = conditions: cited from earlier work
FLT1/VEGFR1 = FLT1/VEGFR1 (Homo sapiens, UniProt P17948); assay: Assay for inhibitory activity against kinase; conditions: read-out: % Inhibition (1 uM)
Chain of FLT1/VEGFR1 (P17948 27-1338): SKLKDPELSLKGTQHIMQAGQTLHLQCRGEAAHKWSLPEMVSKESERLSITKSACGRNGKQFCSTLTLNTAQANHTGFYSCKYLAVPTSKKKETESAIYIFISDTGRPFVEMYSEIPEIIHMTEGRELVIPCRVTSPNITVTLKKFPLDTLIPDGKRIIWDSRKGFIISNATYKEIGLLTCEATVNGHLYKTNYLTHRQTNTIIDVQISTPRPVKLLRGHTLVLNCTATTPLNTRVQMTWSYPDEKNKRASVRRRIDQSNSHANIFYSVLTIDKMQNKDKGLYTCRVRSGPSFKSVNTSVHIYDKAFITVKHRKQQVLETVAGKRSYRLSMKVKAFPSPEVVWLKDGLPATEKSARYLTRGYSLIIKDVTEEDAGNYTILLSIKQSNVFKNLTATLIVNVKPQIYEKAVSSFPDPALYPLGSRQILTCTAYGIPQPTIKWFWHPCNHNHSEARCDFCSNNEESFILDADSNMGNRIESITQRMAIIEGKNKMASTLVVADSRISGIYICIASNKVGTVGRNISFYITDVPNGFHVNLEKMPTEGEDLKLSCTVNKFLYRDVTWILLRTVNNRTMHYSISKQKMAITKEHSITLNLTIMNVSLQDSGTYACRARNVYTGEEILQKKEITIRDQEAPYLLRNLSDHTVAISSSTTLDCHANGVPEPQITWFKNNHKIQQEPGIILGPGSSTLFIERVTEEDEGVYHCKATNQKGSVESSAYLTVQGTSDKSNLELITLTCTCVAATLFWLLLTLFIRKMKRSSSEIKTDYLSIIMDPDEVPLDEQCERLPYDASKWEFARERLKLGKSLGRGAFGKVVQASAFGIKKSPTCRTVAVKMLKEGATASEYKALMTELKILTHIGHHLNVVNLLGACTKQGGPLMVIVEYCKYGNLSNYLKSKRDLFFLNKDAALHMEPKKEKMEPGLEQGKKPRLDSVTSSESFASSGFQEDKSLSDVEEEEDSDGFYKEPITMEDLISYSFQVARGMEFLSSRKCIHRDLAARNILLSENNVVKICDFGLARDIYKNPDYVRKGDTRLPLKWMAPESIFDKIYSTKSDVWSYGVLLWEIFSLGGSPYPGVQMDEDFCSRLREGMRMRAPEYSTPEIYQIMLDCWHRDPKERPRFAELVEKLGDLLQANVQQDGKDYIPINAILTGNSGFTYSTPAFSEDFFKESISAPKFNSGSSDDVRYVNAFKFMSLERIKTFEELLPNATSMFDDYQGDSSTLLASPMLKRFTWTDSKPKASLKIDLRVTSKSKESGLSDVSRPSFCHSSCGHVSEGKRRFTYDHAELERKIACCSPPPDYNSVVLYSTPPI

MV4-11 cell line = assay: Suppressive activity against growth of AML cells (MTT assay); type: cell-based; conditions: Homo sapiens, MV4-11 cancer cell line, 48 hrs treatment
Method: The MV4-11 cell line was grown at 37° C. in RPMI medium [Gibco, New York, USA/10% FBS (Gibco), containing 1% penicillin/streptomycin (Gibco)] in a 5% CO2 atmosphere. The grown MV4-11 cell line was withdrawn into PBS, seeded at a density of 3×10^4 cells/well into 96-well plates, and cultured at 37° C. for 24 hrs in a 5% CO2 atmosphere. Various concentrations of the compound (8 points) were prepared by serial dilution in 10 mM DMSO, and the MV4-11 cell line was treated with various concentrations of the compound for 48 hrs. To assess cell viability, 3-(4,5-dimethylthiazol-2-yl)-2,5-diphenyl tetrazolium bromide (MTT) assay (CellTiter 96 Assay, Promega) was performed.
Briefly, the dye was added in an amount of 15 μL to each well and incubated for 2 hrs. Then, each well was incubated with 100 μL of a stop solution for 24 hrs, followed by reading absorbance at 590 nm on EnVision2103. GI50 was calculated using GraphPad Prism 4.0.

PDGFRb = PDGFRb (Homo sapiens, UniProt P09619); assay: Assay for inhibitory activity against kinase; conditions: read-out: % Inhibition (1 uM)
Chain of PDGFRb (P09619 33-1106): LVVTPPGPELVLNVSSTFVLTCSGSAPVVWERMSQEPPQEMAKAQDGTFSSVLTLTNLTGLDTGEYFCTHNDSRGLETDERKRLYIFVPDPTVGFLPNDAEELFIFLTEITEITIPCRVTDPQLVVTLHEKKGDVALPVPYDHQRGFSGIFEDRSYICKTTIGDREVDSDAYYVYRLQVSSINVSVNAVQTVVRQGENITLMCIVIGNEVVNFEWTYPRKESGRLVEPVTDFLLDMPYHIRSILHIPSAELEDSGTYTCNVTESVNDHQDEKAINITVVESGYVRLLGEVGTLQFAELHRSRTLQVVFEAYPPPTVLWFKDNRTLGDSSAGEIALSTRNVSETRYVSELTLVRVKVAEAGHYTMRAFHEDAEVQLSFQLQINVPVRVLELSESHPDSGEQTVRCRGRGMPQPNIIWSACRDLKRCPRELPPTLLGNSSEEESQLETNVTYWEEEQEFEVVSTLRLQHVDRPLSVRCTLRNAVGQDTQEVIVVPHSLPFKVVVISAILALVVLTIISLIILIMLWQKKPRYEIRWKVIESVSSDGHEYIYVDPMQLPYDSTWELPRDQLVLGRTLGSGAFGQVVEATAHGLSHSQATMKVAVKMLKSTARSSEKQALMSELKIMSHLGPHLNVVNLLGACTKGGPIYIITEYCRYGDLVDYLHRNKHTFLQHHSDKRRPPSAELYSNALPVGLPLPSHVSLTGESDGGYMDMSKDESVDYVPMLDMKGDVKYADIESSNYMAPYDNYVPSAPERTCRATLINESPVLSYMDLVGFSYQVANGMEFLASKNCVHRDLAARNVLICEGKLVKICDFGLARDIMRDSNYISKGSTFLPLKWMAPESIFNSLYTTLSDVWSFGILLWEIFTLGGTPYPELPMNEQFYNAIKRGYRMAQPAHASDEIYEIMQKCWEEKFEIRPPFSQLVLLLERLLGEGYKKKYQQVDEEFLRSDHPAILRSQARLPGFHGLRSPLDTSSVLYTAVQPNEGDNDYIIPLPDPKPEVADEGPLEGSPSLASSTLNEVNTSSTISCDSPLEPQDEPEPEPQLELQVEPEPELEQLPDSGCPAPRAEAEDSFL

Molm-14 = assay: Suppressive activity against growth of AML cells (MTT assay); type: cell-based; conditions: Homo sapiens; Molm-14 cancer cell line

Chain of VEGFR 2 (P35968 20-1356, species assumed): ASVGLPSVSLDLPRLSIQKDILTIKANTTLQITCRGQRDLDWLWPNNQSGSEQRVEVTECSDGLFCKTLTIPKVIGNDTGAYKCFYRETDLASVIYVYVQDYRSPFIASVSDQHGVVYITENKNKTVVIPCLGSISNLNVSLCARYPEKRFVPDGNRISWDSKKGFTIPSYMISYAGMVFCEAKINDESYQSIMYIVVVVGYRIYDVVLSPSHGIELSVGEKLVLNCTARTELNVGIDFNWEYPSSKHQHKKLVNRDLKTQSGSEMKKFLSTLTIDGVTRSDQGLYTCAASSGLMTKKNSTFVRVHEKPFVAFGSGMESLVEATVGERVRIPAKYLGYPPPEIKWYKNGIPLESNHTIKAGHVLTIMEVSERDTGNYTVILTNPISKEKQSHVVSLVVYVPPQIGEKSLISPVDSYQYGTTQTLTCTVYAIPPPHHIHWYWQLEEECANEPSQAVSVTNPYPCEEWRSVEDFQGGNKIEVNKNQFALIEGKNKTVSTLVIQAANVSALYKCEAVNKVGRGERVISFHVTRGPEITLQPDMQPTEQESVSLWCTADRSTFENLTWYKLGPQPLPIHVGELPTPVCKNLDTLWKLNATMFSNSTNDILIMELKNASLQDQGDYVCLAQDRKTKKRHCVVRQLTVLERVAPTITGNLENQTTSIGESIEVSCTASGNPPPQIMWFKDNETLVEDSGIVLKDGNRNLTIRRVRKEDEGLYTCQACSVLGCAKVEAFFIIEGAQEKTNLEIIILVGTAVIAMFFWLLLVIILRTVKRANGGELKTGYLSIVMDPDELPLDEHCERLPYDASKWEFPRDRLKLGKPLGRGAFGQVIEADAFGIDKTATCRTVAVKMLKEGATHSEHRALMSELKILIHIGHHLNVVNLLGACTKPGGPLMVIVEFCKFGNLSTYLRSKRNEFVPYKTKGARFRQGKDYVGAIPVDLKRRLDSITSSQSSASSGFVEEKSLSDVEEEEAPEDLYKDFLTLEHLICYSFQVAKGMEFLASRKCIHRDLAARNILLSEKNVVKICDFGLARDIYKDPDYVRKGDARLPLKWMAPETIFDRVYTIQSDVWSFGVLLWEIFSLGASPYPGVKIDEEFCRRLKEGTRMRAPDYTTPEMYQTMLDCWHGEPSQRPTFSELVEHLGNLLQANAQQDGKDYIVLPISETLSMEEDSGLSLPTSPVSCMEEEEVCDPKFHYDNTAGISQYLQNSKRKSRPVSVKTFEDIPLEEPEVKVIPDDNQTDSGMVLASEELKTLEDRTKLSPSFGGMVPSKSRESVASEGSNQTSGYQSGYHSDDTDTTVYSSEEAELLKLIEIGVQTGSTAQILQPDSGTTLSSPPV

| Structure (SMILES) | inhibition of MAPK (mode) [1] | inhibitory activity against MEK 1/2 (MEK 1/2) | inhibitory activity against VEGFR 2 (VEGFR 2) | inhibitory activity against FLT 3/4 (FLT 3/4) | inhibition at 1 µM (FLT1/VEGFR1) | GI50 (MV4-11 cell line) | inhibition at 1 µM (PDGFRb) | GI50 (Molm-14) |
| --- | --- | --- | --- | --- | --- | --- | --- | --- |
| COc1cc(O)c2c(c1)CCC[C@H](O)[C@H](O)C(=O)/C=C\C[C@H](C)OC2=O [Compound L-783277] | irreversible ATP competitive inhibitor | potent inhibitory activity | potent inhibitory activity | potent inhibitory activity | – | – | – | – |
| COc1cc(O)c2c(c1)-c1cccc(c1)[C@@H](O)[C@H](O)C(=O)/C=C\C[C@H](C)OC2=O [Cpd. 24] | – | – | – | – | 64% | 30 nM | 70% | 90 nM |
